Assay results published in patent US12036218B2, “Modulators of airway basal cells for the treatment or prevention of lung diseases” (Fraunhofer Gesellschaft zur Förderung der angewandten …, priority 2020, dated 2024).

Key:
[1] = tested on: IPF-ABC; experiment: Human 3D bronchosphere assay, IPF-ABC single culture: bronchosphere formation; assay type: cell-based; settings: IPF-ABC cultured in 3D, 21 days
Protocol: (§1) FIG. 5: SRC-inhibitor saracatinib abrogates bronchosphere formation. (A-E) Bronchosphere assays of human IPF-ABCs were performed w/wo IPF lung fibroblasts for 21 days. Cell cultures (n=12, in triplicates) were treated with either vehicle, saracatinib (600, 210, 75, 25, 8 nM), pirfenidone (1 mM) or nintedanib (1 μM). […] (G, H) In the same model we used GFP^+ fibroblasts to study fibroblast proliferation. […] For statistical comparison repeated measures ANOVA with Tukey correction for multiple testing was used.
(§2) Based on the Connectivity MAP predictions, the inventors tested whether saracatinib, a known SRC inhibitor previously tested in human cancer is able to modulate IPF-ABC phenotype. […] The results were similar in cells obtained from 12 different individuals with IPF (P<0.0001, FIG. 5B). […] Similar data were obtained by testing cell proliferation in the MTT assay (P<0.0001, FIG. 5C).
(§3) ABCs, either derived from IPF patients or HV, were cultured in matrigel (Corning) in a transwell system with or without lung fibroblasts either derived from patients with IPF or normal lung for 21 days (if not otherwise indicated) in the incubator (5% CO2, 37° C.). Medium exchange (BEGM (Lonza, Basel, Switzerland, #CC-3170)/DMEM (Dulbecco's Modified Eagle Medium (Gibco, Swit Fisher Scientific/Germany); ratio 1:1) was done every 7 days. In some experiments lentiviral transduced GFP expressing fibroblasts were used. Conditioned medium of the 3D organoid culture (day 7 and day 14) was used for ELISA and fibroblast stimulation experiments. Sircol assay (Scientific-Biocolor/UK, #S1000) was performed as recommended by the manufacturer on matrigel and conditioned medium harvested after 6 weeks of cell culture. Bronchosphere formation was documented by Axio Vert.A1/Zeiss/Germany and Axio Observer Z1/Zeiss/Germany. For histology, immunohistology and confocal laser microscopy 3D cell cultures were cryopreserved using Tissue-Tek and cryomolds (Hartenstein/Germany; #CMM). Detailed information is given in the supplement.

[2] = tested on: IPF-ABC with lung fibroblasts; experiment: 3D co-culture model of IPF-ABC with lung fibroblasts: bronchosphere formation; assay type: cell-based, human
Protocol: as §1, §2, §3

[3] = tested on: IPF-ABC with IPF lung fibroblasts; experiment: MTT cell proliferation assay in IPF-ABC / IPF lung fibroblast co-culture; assay type: cell-based, human; settings: in the presence of IPF lung fibroblasts, 21 days; saracatinib 600-8 nM, pirfenidone 1 mM, nintedanib 1 μM
Protocol: as §1, §3

[4] = tested on: IPF-ABC; experiment: MTT cell proliferation assay in IPF-ABC 3D culture; assay type: cell-based, human; settings: IPF-ABCs without fibroblasts, 21 days; saracatinib 600-8 nM, pirfenidone 1 mM, nintedanib 1 μM
Protocol: as §1, §2, §3

[5] = tested on: lung fibroblasts; experiment: Fibroblast proliferation (GFP+ fibroblasts) in IPF-ABC co-culture; assay type: cell-based, human; settings: GFP+ fibroblasts co-cultured with IPF-ABC
Protocol: as §1, §2
ABCs, either derived from IPF patients or HV, were cultured in matrigel (Corning) in a transwell system with or without lung fibroblasts either derived from patients with IPF or normal lung for 21 days (if not otherwise indicated) in the incubator (5% CO2, 37° C.). […]

[6] = tested on: ABCs; experiment: Cellular vitality of ABCs; assay type: cell-based, human; settings: all used concentrations (600, 210, 75, 25, 8 nM)
Excerpt: as §2

[7] = tested on: NRG mice; experiment: Humanized pulmonary fibrosis model: bleomycin plus intratracheal human IPF-ABCs in NRG mice; assay type: in vivo
Protocol: FIG. 6: SRC-inhibitor saracatinib attenuates fibrosis in the humanized mouse model. NRG mice were intratracheally injected with a low dose of bleomycin and 3 days later with human ABCs derived from IPF patients. Mice (n=11 each group, 4 replicates (all data shown)) were treated oropharyngeally with or without saracatinib in a dose of 10 mg/kg once daily starting at day 4 (A-C) or at day 8 (D-F). […] All P values were determined by a paired comparison (t-test) testing the effect of saracatinib treatment for each human IPF cell line.
To test the effect of saracatinib on IPF-ABC induced fibrosis and remodeling in-vivo, the inventors returned to the minimal injury xenotransplant model in NRG mice. Overall, the inventors used IPF-ABCs from 38 different individuals with IPF in these experiments. Per IPF subject, IPF-ABCs were used in two animals, one treated with saracatinib and one with vehicle control, to account for interindividual variability. To test the effect of saracatinib on engraftment and development of fibrosis we started treatment at day 4 post injury, one day post IPF-ABC installation for a total of 18 days (FIG. 6A). […] To test the effect of saracatinib on established fibrosis the inventors performed another set of experiments in which treatment was delayed to day 8 when cell engraftment and fibrosis were already established.
Different mice strains were used for the experiments as indicated. B6;129Sv-Rag2tm1Fwa/ZTM (75) (Rag2−/−) and NOD.Cg-Rag1tm1Mom Il2rgtm1Wjl/SzJZtm (76) (NRG) were obtained from the central animal facility (Hannover Medical School, Hannover). NOD.Cg-Prkdcscid Il2rgtm1Wjl Tg(CAGGS-VENUS)1/Ztm (Venus-NSG) mice were kindly provided by Dr. Wiebke Garrels (Hannover Medical School). Mice received bleomycin dissolved in sterile saline at the dose of 1.2 mg/kg intratracheally on day 0. IPF-ABCs, HV-ABCs (Rag 2−/−: 0.3×105, NRG and NSG: 0.2×105) were injected intratracheally on day 3. In some experiments human IPF-ABCs transduced with a lentiviral vector encoding for GFP and luciferase were injected. Pairs of mice received the same IPF-ABC line and were later treated either with vehicle or saractinib (kindly provided by Leslie Cousens AstraZeneca) in a dose of 10 mg/kg, i.g. once daily. For histological and immunohistological analysis, the trachea was cannulated and lungs were insufflated with 4% paraformaldehyde in PBS at a pressure of 25 cm H2O, followed by removal of the heart and inflated lungs en bloc and immersion in 4% paraformaldehyde overnight at 4° C., and the tissues were processed to paraffin wax or were cryopreserved using Tissue Tek® O.C.T.™ compound. […] Collagen content was determined by quantifying hydroxyproline levels according to manufacturer's description. […]

[8] = pirfenidone 1 mM, nintedanib 1 μM
[9] = 10 mg/kg once daily oropharyngeal, treatment from day 4, read at day 21
[10] = 10 mg/kg once daily, treatment delayed to day 8 (day 8 to day 21), established fibrosis

SMILES: Cc1ccc(=O)n(-c2ccccc2)c1 [pirfenidone]
- bronchosphere formation [1, 8]: no visible effect
- bronchosphere formation [2, 8]: significantly reduced bronchosphere formation, but not completely
- cell proliferation as measured by the MTT assay [3]: less reduced
- cell proliferation as measured by MTI assay [4]: slightly

SMILES: COC(=O)c1ccc2c(c1)NC(=O)/C2=C(\Nc1ccc(N(C)C(=O)CN2CCN(C)CC2)cc1)c1ccccc1 [nintedanib]
- bronchosphere formation [1, 8]: no visible effect
- bronchosphere formation [2, 8]: significantly reduced bronchosphere formation, but not completely
- cell proliferation as measured by the MTT assay [3]: less reduced
- cell proliferation as measured by MTI assay [4]: slightly

SMILES: CN1CCN(CCOc2cc(OC3CCOCC3)c3c(Nc4c(Cl)ccc5c4OCO5)ncnc3c2)CC1 [saracatinib, N-(5-chloro-1,3-benzodioxol-4-yl)-7-[2-(4-methyl-1-piperazinyl)ethoxy]-5-[(tetrahydro-2H-pyran-4-yl]oxy)-4-quinazolinamine]
- bronchosphere formation ([1]; saracatinib 600 nM, 210 nM, and 75 nM): complete abrogation
- bronchosphere formation ([2]; saracatinib 8 nM): did not have an effect
- bronchosphere formation ([2]; saracatinib 25 nM): lower effect
- bronchosphere formation ([2]; saracatinib 600 nM, 210 nM and 75 nM): completely blocked
- fibroblast proliferation in the co-culture [5]: substantially lower
- cellular vitality of ABCs [6]: did not affect
- cell proliferation as measured by the MTT assay [3]: significantly reduced
- cell proliferation as measured by MTI assay [4]: significantly reduced
- Ashcroft score [7, 9]: 1.4±0.7
- hydroxyproline/total-protein levels [7, 9]: 0.7±0.6
- Ashcroft score [7, 10]: significant reductions
- hydroxyproline content [7, 10]: significant reductions
